{"source": "patent US11419806B2", "about": "“Prebiotic oral care methods using a saccharide” (Colgate-Palmolive Company, priority 2013, dated 2022)", "type_in_all_cases": "cell-based", "key": {"[1]": {"test_system": "Prevotella intermedia", "experiment": "Twenty-four hour optical density growth in BHI", "conditions": "P intermedia", "description": "(§1) The extent of growth of the tested bacteria in response to selected saccharides (myo-inositol, D-lactitol, D-turanose and N-acetyl-D-mannosamine) was investigated by setting up growth curves in a nutritionally rich medium (brain heart infusion broth (BHI), Oxoid), over 24 hours. Late exponential growth phase liquid cultures were prepared by transferring the respective bacterium from blood agar plates to BHI and overnight incubation at 37° C. in an anaerobic atmosphere for A. viscosus, V. parvula, F. nucleatum, P. gingivalis, P. intermedia, T. forsythia, A. naeslundii, and C. sputigena, and in a 5% CO2 environment for S. salivarius, S. sanguinis, S. mitis, A. actinomycetemcomitans, S. mutans, S. sobrinus and S. gordonii. Overnight cultures were transferred to BHI and adjusted to a concentration of 1×10^7 CFU/ml (colony forming units per ml) by measuring the optical density at 600 nm (OD600) (BioRad SmartSpec 3000). For each strain, 200 μl of the bacterial suspension was added to a 96-well plate containing 20 μl of the respective saccharides. Final concentrations of the saccharides were set to 5, 10, 20 and 25 μmol/ml. […] Plates were incubated as previously described.\n(§2) For each combination of bacterium/saccharide, and for each of their respective controls (i.e. the particular bacterium in the nutritionally rich medium with no saccharide), the optical density was measured at 630 nm (OD630) at 0 h and 24 h (Thermo Scientific Multiskan Ascent). Additionally, the OD630 for combinations of bacterium/saccharides grown in a 5% CO2 environment were also measured every hour between 0 h and 9 h.\n(§3) The experiment was carried out on three different days (thus providing 3 biological replicas) and on each day the experiment was carried out in quadruple (thus providing 4 technical replicas) for each combination of bacterium with saccharide and for each control. For each day and for each combination, the average (mean) of the values obtained (as detailed above) for the four technical replicas was calculated to provide a single value for each combination on each day. The values shown in Tables 5a,b to 6a,b, below, are the average (mean) of the three single values obtained for each combination of bacterium with saccharide."}, "[2]": {"test_system": "Porphyromonas gingivalis", "experiment": "Twenty-four hour optical density growth in BHI", "conditions": "P gingivalis", "description": "as §1, §2, §3"}, "[3]": {"test_system": "beneficial oral bacteria and pathogenic oral bacteria", "experiment": "Twenty-four hour optical density, overall prebiotic assessment", "conditions": "concentrations of 10, 20 and 25 μmol/ml", "source_text": "Substrates that were able to increase the growth (or maximal growth density or extent of growth) of at least one of the above beneficial bacteria while not or only minimally increasing the growth (or maximal growth density) of the pathogenic bacteria are considered to be prebiotic compounds.\nThe extent of growth of the tested bacteria in response to selected saccharides (myo-inositol, D-lactitol, D-turanose and N-acetyl-D-mannosamine) was investigated by setting up growth curves in a nutritionally rich medium (brain heart infusion broth (BHI), Oxoid), over 24 hours. Late exponential growth phase liquid cultures were prepared by transferring the respective bacterium from blood agar plates to BHI and overnight incubation at 37° C. in an anaerobic atmosphere for A. viscosus, V. parvula, F. nucleatum, P. gingivalis, P. intermedia, T. forsythia, A. naeslundii, and C. sputigena, and in a 5% CO2 environment for S. salivarius, S. sanguinis, S. mitis, A. actinomycetemcomitans, S. mutans, S. sobrinus and S. gordonii. […]\nas §2\nas §3, with “The values shown in Tables 5a,b to 6a,b, below, are the average (mean) of the three single values obtained for each combination of bacterium with saccharide.” left out"}, "[4]": {"test_system": "P. intermedia", "experiment": "Twenty-four hour biofilm growth (crystal violet)", "description": "(§4) The increase in biofilm formation of the tested bacteria in response to selected saccharides (D-turanose, D-lactitol, myo-inositol, and N-acetyl-D-mannosamine) was investigated by setting up biofilm growth assays in a nutritionally rich medium (brain heart infusion broth (BHI), Oxoid), over 24 hours. Late exponential growth phase liquid cultures were prepared by transferring the respective bacterium from blood agar plates to BHI and overnight incubation at 37° C. in an anaerobic atmosphere for A. viscosus, V. parvula, P. gingivalis, P. intermedia, T. forsythia, A. naeslundii, and C. sputigena, and in a 5% CO2 environment for S. salivarius, S. sanguinis, S. mitis, A. actinomycetemcomitans, S. mutans, and S. gordonii. Overnight cultures were transferred to BHI and adjusted to a concentration of 1×10^7 CFU/ml by measuring the optical density at 600 nm (OD600) (BioRad SmartSpec 3000). For each strain, 200 μl of the bacterial suspension was added to a 96-well plate containing 20 μl of the respective saccharides. Final concentrations of the saccharides were set to 5, 10, 20 and 25 μmol/ml. […] Additionally, for each bacterium tested, a background control, to correct for background staining, was added. This background control contained the bacterium tested and 0.03 weight % chlorhexidine, as an antiseptic. Plates were incubated as previously described. After 24 hrs the supernatant was removed from the wells of the plates. The wells were washed twice with 1×100 μL PBS (phosphate buffered saline), fixed for 20 minutes with 96% vol. ethanol (96% vol. solution in water) and the biofilm retained at the bottom of the wells was stained with 1 weight % crystal violet (1 weight % solution in water). The bound dye was dissolved with 5% vol. acetic acid (5% vol. solution in water). Quantification of the stained biofilm was performed by measuring the absorbance at 630 nm using a Multiskan Ascent microplate reader (Thermo Scientific).\nas §3, with “and” for “and on”, “7a, 7b, 8a, 8b,” for “5a,b to 6a,b,”"}, "[5]": {"test_system": "S. gordonii", "experiment": "Twenty-four hour biofilm growth (crystal violet)", "description": "as §4\nas §3, with “and” for “and on”, “7a, 7b, 8a, 8b,” for “5a,b to 6a,b,”"}, "[6]": {"test_system": "A. viscosus", "experiment": "Twenty-four hour biofilm growth (crystal violet)", "description": "as §4\nas §3, with “and” for “and on”, “7a, 7b, 8a, 8b,” for “5a,b to 6a,b,”"}, "[7]": {"test_system": "A. actinomycetemcomitans", "experiment": "Twenty-four hour biofilm growth (crystal violet)", "description": "as §4\nas §3, with “and” for “and on”, “7a, 7b, 8a, 8b,” for “5a,b to 6a,b,”"}, "[8]": {"test_system": "S. mutans", "experiment": "Twenty-four hour biofilm growth (crystal violet)", "conditions": "for biofilm growth: OD 630 nm at 24 hrs divided by OD of control (control = 1): S mutans", "description": "as §4\nas §3, with “and” for “and on”, “7a, 7b, 8a, 8b,” for “5a,b to 6a,b,”"}, "[9]": {"test_system": "S. sanguinis", "experiment": "Twenty-four hour biofilm growth (crystal violet)", "description": "as §4\nas §3, with “and” for “and on”, “7a, 7b, 8a, 8b,” for “5a,b to 6a,b,”"}, "[10]": {"test_system": "T. forsythia", "experiment": "Twenty-four hour biofilm growth (crystal violet)", "description": "as §4\nas §3, with “and” for “and on”, “7a, 7b, 8a, 8b,” for “5a,b to 6a,b,”"}, "[11]": {"test_system": "P. gingivalis", "experiment": "Twenty-four hour biofilm growth (crystal violet)", "description": "as §4\nas §3, with “and” for “and on”, “7a, 7b, 8a, 8b,” for “5a,b to 6a,b,”"}}, "data": [{"smiles": "OC[C@@H](O)[C@@H](O[C@H]1O[C@H](CO)[C@H](O)[C@H](O)[C@H]1O)[C@H](O)[C@@H](O)CO", "note": "[D-Lactitol, 4-O-α-D-galactopyranosyl-D-glucitol]", "values": [{"measurement": "extent of growth: maximal OD630 over 24 hr divided by maximal OD of control (control = 1)", "setting": "[1]; 5 μmol/ml", "value": 0.9178}, {"measurement": "extent of growth: maximal OD630 over 24 hr divided by maximal OD of control (control = 1)", "setting": "[1]; 10 μmol/ml", "value": 0.9210}, {"measurement": "extent of growth: maximal OD630 over 24 hr divided by maximal OD of control (control = 1)", "setting": "[1]; 20 μmol/ml", "value": 0.9185}, {"measurement": "extent of growth: maximal OD630 over 24 hr divided by maximal OD of control (control = 1)", "setting": "[1]; 25 μmol/ml", "value": 0.9036}, {"measurement": "extent of growth: maximal OD630 over 24 hr divided by maximal OD of control (control = 1)", "setting": "[2]; 5 μmol/ml", "value": 0.9615}, {"measurement": "extent of growth: maximal OD630 over 24 hr divided by maximal OD of control (control = 1)", "setting": "[2]; 10 μmol/ml", "value": 0.9989}, {"measurement": "extent of growth: maximal OD630 over 24 hr divided by maximal OD of control (control = 1)", "setting": "[2]; 20 μmol/ml", "value": 0.9706}, {"measurement": "extent of growth: maximal OD630 over 24 hr divided by maximal OD of control (control = 1)", "setting": "[2]; 25 μmol/ml", "value": 1.0115}, {"measurement": "prebiotic effects (extent of growth, threshold value 1.25)", "setting": "[3]", "value": "exhibited prebiotic effects"}, {"measurement": "biofilm growth: OD 630 nm at 24 hrs divided by OD of control (control = 1)", "setting": "[4]; 5 μmol/ml", "value": 1.0504}, {"measurement": "biofilm growth: OD 630 nm at 24 hrs divided by OD of control (control = 1)", "setting": "[4]; 10 μmol/ml", "value": 1.0396}, {"measurement": "biofilm growth: OD 630 nm at 24 hrs divided by OD of control (control = 1)", "setting": "[4]; 20 μmol/ml", "value": 1.1500}, {"measurement": "biofilm growth: OD 630 nm at 24 hrs divided by OD of control (control = 1)", "setting": "[4]; 25 μmol/ml", "value": 1.1288}, {"measurement": "biofilm growth: OD 630 nm at 24 hrs divided by OD of control (control = 1)", "setting": "[5]; 5 μmol/ml", "value": 0.6036}, {"measurement": "biofilm growth: OD 630 nm at 24 hrs divided by OD of control (control = 1)", "setting": "[5]; 10 μmol/ml", "value": 0.5959}, {"measurement": "biofilm growth: OD 630 nm at 24 hrs divided by OD of control (control = 1)", "setting": "[5]; 20 μmol/ml", "value": 0.4885}, {"measurement": "biofilm growth: OD 630 nm at 24 hrs divided by OD of control (control = 1)", "setting": "[5]; 25 μmol/ml", "value": 0.5149}, {"measurement": "biofilm growth: OD 630 nm at 24 hrs divided by OD of control (control = 1)", "setting": "[6]; 5 μmol/ml", "value": 0.6832}, {"measurement": "biofilm growth: OD 630 nm at 24 hrs divided by OD of control (control = 1)", "setting": "[6]; 10 μmol/ml", "value": 0.7502}, {"measurement": "biofilm growth: OD 630 nm at 24 hrs divided by OD of control (control = 1)", "setting": "[6]; 20 μmol/ml", "value": 0.9528}, {"measurement": "biofilm growth: OD 630 nm at 24 hrs divided by OD of control (control = 1)", "setting": "[6]; 25 μmol/ml", "value": 0.9153}, {"measurement": "biofilm growth: OD 630 nm at 24 hrs divided by OD of control (control = 1)", "setting": "[7]; 5 μmol/ml", "value": 0.6593}, {"measurement": "biofilm growth: OD 630 nm at 24 hrs divided by OD of control (control = 1)", "setting": "[7]; 10 μmol/ml", "value": 0.6496}, {"measurement": "biofilm growth: OD 630 nm at 24 hrs divided by OD of control (control = 1)", "setting": "[7]; 20 μmol/ml", "value": 0.8502}, {"measurement": "biofilm growth: OD 630 nm at 24 hrs divided by OD of control (control = 1)", "setting": "[7]; 25 μmol/ml", "value": 0.8372}, {"measurement": "stimulation of biofilm formation of S. mutans", "setting": "[8]; Example 3", "value": "does not stimulate"}, {"measurement": "biofilm growth: OD 630 nm at 24 hrs divided by OD of control (control = 1)", "setting": "[8]; 5 μmol/ml", "value": 0.9767}, {"measurement": "biofilm growth: OD 630 nm at 24 hrs divided by OD of control (control = 1)", "setting": "[8]; 10 μmol/ml", "value": 0.9333}, {"measurement": "biofilm growth: OD 630 nm at 24 hrs divided by OD of control (control = 1)", "setting": "[8]; 20 μmol/ml", "value": 1.1068}, {"measurement": "biofilm growth: OD 630 nm at 24 hrs divided by OD of control (control = 1)", "setting": "[8]; 25 μmol/ml", "value": 1.0108}, {"measurement": "biofilm growth: OD 630 nm at 24 hrs divided by OD of control (control = 1)", "setting": "[9]; 5 μmol/ml", "value": 1.2160}, {"measurement": "biofilm growth: OD 630 nm at 24 hrs divided by OD of control (control = 1)", "setting": "[9]; 10 μmol/ml", "value": 1.5548}, {"measurement": "biofilm growth: OD 630 nm at 24 hrs divided by OD of control (control = 1)", "setting": "[9]; 20 μmol/ml", "value": 1.8523}, {"measurement": "biofilm growth: OD 630 nm at 24 hrs divided by OD of control (control = 1)", "setting": "[9]; 25 μmol/ml", "value": 2.2341}, {"measurement": "biofilm growth: OD 630 nm at 24 hrs divided by OD of control (control = 1)", "setting": "[10]; 5 μmol/ml", "value": 0.5843}, {"measurement": "biofilm growth: OD 630 nm at 24 hrs divided by OD of control (control = 1)", "setting": "[10]; 10 μmol/ml", "value": 0.5942}, {"measurement": "biofilm growth: OD 630 nm at 24 hrs divided by OD of control (control = 1)", "setting": "[10]; 20 μmol/ml", "value": 0.7398}, {"measurement": "biofilm growth: OD 630 nm at 24 hrs divided by OD of control (control = 1)", "setting": "[10]; 25 μmol/ml", "value": 0.6158}, {"measurement": "biofilm growth: OD 630 nm at 24 hrs divided by OD of control (control = 1)", "setting": "[11]; 5 μmol/ml", "value": 0.9536}, {"measurement": "biofilm growth: OD 630 nm at 24 hrs divided by OD of control (control = 1)", "setting": "[11]; 10 μmol/ml", "value": 0.9616}, {"measurement": "biofilm growth: OD 630 nm at 24 hrs divided by OD of control (control = 1)", "setting": "[11]; 20 μmol/ml", "value": 0.8995}, {"measurement": "biofilm growth: OD 630 nm at 24 hrs divided by OD of control (control = 1)", "setting": "[11]; 25 μmol/ml", "value": 0.9701}]}]}
